Legend:
Assay type in all cases: physicochemical
[1] = Water solubility of gacyclidine forms
Description: (§1) However, in polymeric containers or in the presence of excess precipitated drug, the apparent pKA is perturbed to lower values due to interaction of the basic form of the drug with polymeric surfaces or its own insoluble precipitate. In the conjugate acid form, gacyclidine is extremely water soluble. Solutions of greater than 1 molar (M) concentration can be prepared from the hydrochloride salt. However, solutions of the acid form of the drug are thermally unstable and subject to acid-catalyzed decomposition to give stoichiometric piperidine (1 mole per mole of drug lost) and multiple other organic products.

[2] = Thermal decomposition / stability of gacyclidine in solution; conditions: for decomposition rate: 54° C.; for Time for 10% Loss: Ringer's Lactate
[3] = Apparent pKA of gacyclidine in aqueous solution
Description: as §1

[4] = Binding (loss) of gacyclidine to silicone; conditions: room temperature, pH 6, 100 μM gacyclidine solution; depends on time and temperature of exposure
Description: Delivery of gacyclidine in such a manner presents numerous challenges, however. Various characteristics of gacyclidine are discussed in more detail below. […] Specifically, catheters, drug reservoirs, pumps, anti-bacterial filters and other components of drug delivery systems are typically fabricated from polymers approved for human implantation.

Q: For `C[C@H]1CCCC[C@@]1(c1cccs1)N1CCCCC1.Cl` [Gacyclidine Hydrochloride Salt, Gacyclidine], which “solubility in water (concentration of clear solution)” value [1] is on record?
A: The value was “greater than 1 M”.

Q: And the “solubility in water (concentration of clear solution)” value ([1]; listed as hydrochloride salt of gacyclidine)?
A: The value was over 1000 mM.

Q: And the decomposition rate ([2]; 10 mM HCl)?
A: The decomposition rate was 0.52 day⁻¹.

Q: What about the “Time for 10% Loss” value ([2]; 37° C., pH 5.5) of the same molecule?
A: The value was 3.7 ± 0.1 days.

Q: And the “Time for 10% Loss” value ([2]; 37° C., pH 6.0)?
A: Its value is 3.82 ± 0.03 days.

Q: And the “Time for 10% Loss” value ([2]; 37° C., pH 7.4)?
A: The value was 6.1 ± 0.4 days.

Q: What about the “Time for 10% Loss” value ([2]; 37° C., pH 7.4, listed as gacyclidine in the hydrochloride salt form) of the same molecule?
A: Its value is 6.1 days.

Q: What about the “time required for 10% loss” value ([2]; 37° C., slightly acidic conditions) of the same molecule?
A: Its value is 3.8 days.

Q: With `CC1CCCCC1(c1cccs1)N1CCCCC1` (centres unmarked) [Gacyclidine] as the molecule, how does the “temperature dependence of apparent pKA” value [3] read?
A: Its value is −0.016 ΔpKA/° C.

Q: What about the “apparent pKA in glass vials higher than in polypropylene” value ([3]; 37° C., 1 mM gacyclidine) of the same molecule?
A: Its value is “about 0.7 pH units”.

Q: And the “apparent pKA” value ([3]; room temperature, glass containers)?
A: Its value is 7.4.

Q: And the “apparent pKA (from residual gacyclidine in solution)” value ([3]; room temperature, 0.1 M hydrochloride salt diluted into buffered aqueous solution to 1 mM, glass or polypropylene vials)?
A: Its value is 6.7.

Q: What about the “pH above which precipitation is observed” value ([1]; 0.1 M hydrochloride salt diluted into buffered aqueous solution to 1 mM) of the same molecule?
A: Its value is over 7 pH.

Q: And the “gacyclidine retained by silicone” value [4]?
A: The value was “up to 60%”.

Q: With `CC1CCCCC1(c1cccs1)N1CCCCC1` (centres unmarked) [basic form of gacyclidine, Gacyclidine] as the molecule, how does the solubility in water ([1]; above pH 9) read?
A: The solubility in water was under 0.002 mM.

Q: What about the decomposition rate ([2]; 1 mM NaOH) of the same molecule?
A: The decomposition rate was 0.0013 day⁻¹.

Q: What about the “stability relative to the conjugate acid form” value ([2]; from decomposition rates at 54° C.) of the same molecule?
A: Its value is 200-400 times.

— US20080145439A1, “NA[…] FORMULATIONS” (NEUROSYSTEC CORPORATION, priority 2006, published 2008)
